The source of these data is patent publication US20240025893A1, “PYRIMIDINE-AND NITROGEN-CONTAINING BICYCLIC COMPOUND” (Asahi Kasei Pharma Corporation, priority 2020, published 2024).

In general, IC50 refers to the concentration needed to halve the response being measured. A lower IC50 goes with higher potency.

In assay [1] the test system is collagen-induced arthritis in Lewis rats. Nature of the assay: Rat collagen-induced arthritis model (footpad volume). Particulars: 19 days after first immunization. Format: in vivo. Here is the method:
Eight weeks old female Lewis rats (SLC Inc.) were immunized with bovine type II collagen (CII, Collagen Technical Study Session, product number K41) to induce arthritis. A 1:1 mixed emulsion of the incomplete Freund's adjuvant (Difco, Cat. 263910) and a 3 mg/mL solution of CII was prepared, and 0.7 mL of the emulsion was injected to each rat at seven sites in the tale base part and skins of both fore and hind legs in a volume of 0.1 mL per site. Booster immunization was performed after 7 days by injecting 0.2 mL of the same 1:1 mixed emulsion of the incomplete Freund's adjuvant and CII as that used in the first day at two sites in the tale base part in a volume of 0.1 mL per site. After 12 days, footpad volumes of the both hind feet of the animals were measured by using Plethysmometer (UGO BASILE, Cat. 37140), and the individual animals were divided into groups according to the footpad volume ratio based on that of the normal group and body weight. After they were divided into groups, administration of a test compound or a solvent (vehicle, 0.5% methylcellulose) was started, and it was orally administered twice a day for 7 days (provided that, on the day of grouping, the administration was performed only once after grouping). After the start of the administration, the footpad volumes of both hind feet of the animals were measured every other day or every 3 days by using Plethysmometer, and influence of the test compound was evaluated.
Average value of the footpad volumes was calculated for each individual on each measurement day by using Excel 2010 (Microsoft), and plotted as a graph by using GraphPadPrism 7.03 (GraphPad Software, Inc.). The normal group was defined to be a 100% suppression group, and the solvent administration group was defined to be a 0% suppression group. The suppression ratios based on these controls were calculated for each concentration of the test compound by using Excel 2010 (Microsoft).

A further assay concerns the target human IRAK-4 (Homo sapiens (Human), UniProt Q9NWZ3). Briefly: Measurement of human IRAK-4 inhibitory activity (TR-FRET, peptide substrate phosphorylation, 10 μM ATP). Format: biochemical. To be noted: 1 nM IRAK-4, 10 μM ATP, 23° C., 30 minutes; average values. In short, it runs like this: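 With 1 nM IRAK-4, 0.5 μM biotinylated peptide and 10 μM ATP, compound incubated 30 min at 23 °C in 50 mM HEPES pH 7.2 with Mg2+/Mn2+. Stopped with EDTA plus europium-cryptate anti-phosphopeptide antibody and streptavidin-XL665, 60 min at 23 °C. Activity taken as the 665/620 nm TR-FRET ratio.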
In general terms: In TR-FRET formats the signal depends on donor and acceptor labels being close together.

The test system of assay [2] is LPS-stimulated TNFα production in THP-1 cells. Nature of the assay: LPS-stimulated TNFα production inhibition test using human acute monocytic leukemia cell strain THP-1. The format is cell-based. Particulars: Homo sapiens, THP-1, 4 h, LPS 2.5 ng/mL, average values. In a few lines:
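THP-1 cells were preincubated with compound for 1 h at 37 °C, then stimulated with LPS (2.5 ng/mL final) for 4 h. Supernatant TNFα was quantified by HTRF (620/665 nm ratio) against a calibration curve. IC50 came from a 4-parameter logistic fit, with no-LPS set as 100% and no-compound as 0% suppression.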

Structures are written as SMILES.

Sequence of human IRAK-4 (Q9NWZ3 whole entry): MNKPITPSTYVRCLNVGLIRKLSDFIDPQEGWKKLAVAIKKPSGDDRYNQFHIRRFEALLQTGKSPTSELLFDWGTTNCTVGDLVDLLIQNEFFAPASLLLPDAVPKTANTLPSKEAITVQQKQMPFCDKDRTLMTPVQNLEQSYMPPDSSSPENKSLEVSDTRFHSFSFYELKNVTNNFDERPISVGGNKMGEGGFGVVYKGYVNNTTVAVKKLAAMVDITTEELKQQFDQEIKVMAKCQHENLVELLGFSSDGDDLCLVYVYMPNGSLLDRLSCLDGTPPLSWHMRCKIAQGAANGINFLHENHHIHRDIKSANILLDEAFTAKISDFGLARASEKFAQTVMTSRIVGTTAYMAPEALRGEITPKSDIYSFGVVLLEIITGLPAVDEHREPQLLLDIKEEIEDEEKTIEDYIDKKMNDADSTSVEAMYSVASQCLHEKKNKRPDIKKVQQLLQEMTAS

Consider `COc1c(-c2cnc(CO[C@H]3CCC[C@@H]3O)nc2)ccc2nc(NC(=O)C3CC3)sc12` [c-01-01, N-(6-(2-((((1S,2S)-2-Hydroxycyclopentyl)oxy)methyl)pyrimidin-5-yl)-7-methoxybenzo[d]thiazol-2-yl)cyclopropanecarboxamide], for which the “suppression ratio (footpad volume)” value in assay [1] (20 mg/kg orally twice a day) came out at 45%; in assay [1] (60 mg/kg orally twice a day), 65%; in assay [1] (120 mg/kg orally twice a day), 77%. For the same compound, the IC50 on human IRAK-4 amounted to 0.00392 µM; in assay [2], 0.143 µM.
With `O=C(Nc1nc2ccc(-c3cnc(CO[C@H]4CCC[C@@H]4O)nc3)cc2s1)C1CC(N2CCOC(C3CC3)C2)C1` (stereo partly shown) [b-02-30], the IC50 turned out to be 0.00412 µM at human IRAK-4 and 0.137 µM in assay [2].
